Laboratory results reported in paper doi:10.1101/2024.04.24.590935, “Measuring PETase enzyme kinetics by single-molecule microscopy” (bioRxiv, 2024).

Tests used:
[1] = molecular target: T1, PETase (wild-type PETase, IsPETase) (Pseudideonella sakaiensis, UniProt A0A0K8P6T7, W159H/S238F); test: single-molecule TIRF of Qdot655-labelled PETase on PET film, competition by pNPA; format: binding; settings: 4 mM pNPA; competitive with PET; also model soluble substrate; 50 mM sodium phosphate, 100 mM NaCl, pH 7.4, 22 °C
T1 construct: gene ISF6_4831
T1 sequence (A0A0K8P6T7 28-290 W159H/S238F): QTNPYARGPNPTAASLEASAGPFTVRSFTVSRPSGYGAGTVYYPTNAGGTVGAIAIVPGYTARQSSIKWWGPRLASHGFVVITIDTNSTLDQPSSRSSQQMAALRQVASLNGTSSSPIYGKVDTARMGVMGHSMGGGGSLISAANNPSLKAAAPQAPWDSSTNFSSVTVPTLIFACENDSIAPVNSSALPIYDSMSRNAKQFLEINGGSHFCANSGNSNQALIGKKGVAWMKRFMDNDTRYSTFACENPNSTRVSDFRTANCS

[2] = molecular target: T2, PETase (wild-type PETase, IsPETase) (Pseudideonella sakaiensis, UniProt A0A0K8P6T7); test: as above; format: binding; settings: 4 mM pNPA; competitive with PET; also model soluble substrate; 50 mM sodium phosphate, 100 mM NaCl, pH 7.4, 22 °C
T2 construct: gene ISF6_4831
T2 sequence (A0A0K8P6T7 28-290): as the sequence (A0A0K8P6T7 28-290 W159H/S238F) above, with H132W, F211S counted along it

Q: How did the “single-molecule TIRF of Qdot655-labelled PETase on PET film, competition by pNPA” value [1] turn out when CC(=O)Oc1ccc([N+](=O)[O-])cc1 [4-Nitrophenyl acetate] was run?
A: pNPA strongly diminished the landing rate of the wild-type and hyperactive mutant

Q: What about the “single-molecule TIRF of Qdot655-labelled PETase on PET film, competition by pNPA” value [2] of the same molecule?
A: pNPA reduced the binding duration of wild-type PETase and the hyperactive variant
